Test results as given in patent US12070457B2, “Substituted pyridines, pyridazines, pyrimidines, and 1,2,3-triazines as bruton's tyrosine kinase inhibitors” (HUTCHISON MEDIPHARMA LIMITED, priority 2020, dated 2024).

Experiments:
[1] = Stability test in liver microsomes (mouse); assay type: in vitro ADME; settings: 1 μM compound; for stability in mouse liver microsomes compared with reference GDC-0853: 0.5 mg/mL liver microsomes, 30 minutes incubation; for MLM, percentage of remaining compound after 30 minutes of incubation: mouse liver microsomes
Excerpt: (§1) Example 5 Stability Test in Liver Microsomes
(§2) Both male CD-1 mouse pooled liver microsomes and male SD rat pooled liver microsomes were purchased from BioreclamationIVT Corporation, USA.
(§3) Phenacetin, glucose-6-phosphate dehydrogenase (G-6-PDH) and nicotinamide adenine dinucleotide phosphate (NADP) were all purchased from Sigma-Aldrich Corporation, USA. Glucose-6-phosphate (G-6-P) was purchased from Shanghai Eybridge Chemical Technology Co., Ltd.
(§4) Ten mM test compound stock solution: a certain amount of test compound was weighed, and dissolved with an appropriate volume of DMSO to prepare a stock solution with a concentration of 10 mM for use.
(§5) Reaction stopping solution: an appropriate amount of internal standard compound phenacetin was dissolved in acetonitrile to prepare a reaction stopping solution with a concentration of 1000 ng/mL for use at room temperature.
(§6) The test compound stock solution was diluted with an organic solvent (usually a mixture of acetonitrile, methanol and water with various ratios, depending on the solubility of the compound, if necessary, 1 N hydrochloric acid or 1 N sodium hydroxide would be added to facilitate solubilization) to the 0.1 mM (the final concentration of the compound in the reaction system was 1 μM) and the concentration percentage of the organic solvents in the incubation system no more than 1% (wherein the percentage of DMSO was required to be no more than 0.1%). An appropriate amount of 100 mM NADP, 500 mM G-6-P and 100 Unit/mL G-6-PDH were mixed and diluted with ultrapure water (the final system contains 1 mM NADP, 5 mM G-6-P and 1 Unit/mL G-6-PDH), pre-incubated in a 37° C. water bath for 10 minutes and then placed on ice for use as a NADPH regeneration solution. 20 mg/mL liver microsomes solution and 200 mM phosphate buffer was mixed, and diluted with ultrapure water to give a liver microsomes solution containing 2.5 mg/mL liver microsomes (the final concentration of the reaction system is 0.5 mg/mL) and 50 mM phosphate buffer. The diluted liver microsomes solution was mixed with 0.1 mM compound solution, a mixture of 100 mM EDTA, 300 mM MgCl2 solution, 200 mM phosphate buffer (the final system was 3 mM MgCl2, 1 mM EDTA and 50 mM phosphate buffer) and water in an appropriate volume was added. Finally, the NADPH regeneration solution was added, then the reaction solution was placed in a 37° C. water bath to start the reaction (the reaction time was 30 minutes), and the reaction was stopped by adding the ice-cold acetonitrile reaction stopping solution containing the internal standard. The 0-minute sample was not incubated in a 37° C. water bath, and its difference from the 30-minute sample further lies in that the ice-cold acetonitrile reaction stopping solution containing the internal standard was added first, and then the NADPH regeneration solution was added. The sample added with the reaction stopping internal standard solution was vortexed and mixed well, and then centrifuged at 4400 rpm for 10 minutes. The supernatant was taken and diluted ten times with 50% methanol for LC-MS/MS analysis.
(§7) LC-MS/MS was used to determine the concentration of the compound in the sample. The percentage of the remaining compound after 30 minutes of incubation comparing with that in the 0-minute sample was calculated using the peak area ratio of the compound to the internal standard as an indicator, to evaluate the metabolic stability of the compound.
(§8) Instrument: API4500, API4000 or LTQ Mass Spectrometer; the liquid phase is UHPLC system (Shimadzu LC-30 AD, model Nexra X2) including liquid delivery unit, column thermostat, detector and autosampler; or Agilent 1200 Binary Pump series HPLC and CTC Autosampler.
(§9) Chromatographic column: Waters XSELECT Hss T3 C18 (2.5 μm, 2.1×50 mm) or […] (5 μm, 2.0×50 mm)
(§10) Mobile phase: • A: water with 0.1% FA (formic acid) (with or without 0.1% ACN (acetonitrile)) • B: acetonitrile with 0.1% FA (formic acid).

[2] = Stability test in liver microsomes (rat); assay type: in vitro ADME; settings: 1 μM compound; for stability in rat liver microsomes compared with reference GDC-0853: 0.5 mg/mL liver microsomes, 30 minutes incubation; for RLM, percentage of remaining compound after 30 minutes of incubation: rat liver microsomes
Excerpt: as §1, §2, §3, §4, §5, §6, §7, §8, §9, §10

| MLM, percentage of remaining compound after 30 minutes of incubation [1] [%] | RLM, percentage of remaining compound after 30 minutes of incubation [2] [%] | SMILES | stability in mouse liver microsomes compared with reference GDC-0853 [1] | stability in rat liver microsomes compared with reference GDC-0853 [2] |
| --- | --- | --- | --- | --- |
| 83.4 | 91.8 | CC1CCc2cc3c(=O)n(-c4nccc(-c5cc(Nc6ccc(N7CCN(C8COC8)C[C@@H]7C)cn6)c(=O)n(C)c5)c4CO)ccn3c2C1 (mixture of isomers) [Compound 78] | better than that of the reference GDC-0853 | better than that of the reference GDC-0853 |
| 90.5 | 98.9 | C[C@@H]1CN(c2ccc(Nc3cc(-c4ccnc(-n5ccn6c7c(cc6c5=O)CCC7)c4CO)cn(C)c3=O)nc2)[C@@H](C)CN1C1COC1 [Compound 2, 2-(5-((5-((2S,5R)-2,5-dimethyl-4-(oxetan-3-yl)piperazin-1-yl)pyridin-2-yl)amino)-3′-(hydroxymethyl)-1-methyl-6-oxo-1,6-dihydro-[3,4′-bispyridin]-2′-yl)-7,8-dihydro-2H-cyclopenta[4,5]pyrrolo[1,2-α]pyrazin-1(6H)-one] | better than that of the reference GDC-0853 | better than that of the reference GDC-0853 |
| 95.7 | 89.5 | Cn1cc(-c2ccnc(-n3ccn4c5c(cc4c3=O)CC(C)(C)C5)c2CO)cc(Nc2ccc(N3CCN(C4COC4)CC3)cn2)c1=O [Compound 9] | better than that of the reference GDC-0853 | better than that of the reference GDC-0853 |
| 93.1 | 97.1 | C[C@H]1CN(C2COC2)CCN1c1cnc(Nc2cc(-c3ccnc(-n4ccn5c6c(cc5c4=O)CC(C)(C)C6)c3CO)cn(C)c2=O)nc1 [Compound 44] | better than that of the reference GDC-0853 | better than that of the reference GDC-0853 |
| 89.5 | 93.7 | C[C@H]1CN(C2COC2)CCN1c1ccc(Nc2cc(-c3ccnc(-n4ccn5c6c(cc5c4=O)CCC(F)(F)C6)c3CO)cn(C)c2=O)nc1 [Compound 56] | better than that of the reference GDC-0853 | better than that of the reference GDC-0853 |
| 97.1 | ~100 | C[C@H]1CN(C2COC2)CCN1c1ccc(Nc2cc(-c3ccnc(-n4ccn5c6c(cc5c4=O)CC(F)(F)CC6)c3CO)cn(C)c2=O)nc1 [Compound 58] | better than that of the reference GDC-0853 | better than that of the reference GDC-0853 |
| 85.8 | 89.6 | C[C@H]1CN(C2COC2)CCN1c1ccc(Nc2cc(-c3ccnc(-n4cnn5c6c(cc5c4=O)CC(C)(C)C6)c3CO)cn(C)c2=O)nc1 [Compound 63] | better than that of the reference GDC-0853 | better than that of the reference GDC-0853 |
| 95.6 | 92.1 | C[C@H]1CN(C2COC2)CCN1c1ccc(Nc2cc(-c3ccnc(-n4ccn5c6c(cc5c4=O)CCC6)c3CO)cn(C)c2=O)nc1 [Compound 64] | better than that of the reference GDC-0853 | better than that of the reference GDC-0853 |
| 97.5 | 87.7 | C[C@H]1CN(C2COC2)CCN1c1ccc(Nc2cc(-c3ccnc(-n4ccn5c(cc6ccccc65)c4=O)c3CO)cn(C)c2=O)nc1 [Compound 74] | better than that of the reference GDC-0853 | better than that of the reference GDC-0853 |
| 83.0 | 84.0 | C[C@H]1CN(C2COC2)CCN1c1ccc(Nc2cc(-c3ccnc(-n4ccn5c(cc6cc(F)ccc65)c4=O)c3CO)cn(C)c2=O)nc1 [Compound 75] | better than that of the reference GDC-0853 | better than that of the reference GDC-0853 |
| ~100 | ~100 | C[C@H]1CN(C2COC2)CCN1c1ccc(Nc2cc(-c3ccnc(-n4ncn5c6c(cc5c4=O)CC(C)(C)C6)c3CO)cn(C)c2=O)nc1 [Compound 79] | better than that of the reference GDC-0853 | better than that of the reference GDC-0853 |
